The source of these data is article PMC4879371, “Antitrypanosomal Activities and Mechanisms of Action of Novel Tetracyclic Iridoids from Morinda lucida Benth” (Antimicrobial Agents and Chemotherapy, 2016).

The subject of data set [1] is Trypanosoma parasites (T. brucei brucei). The data set is described as follows: FACS Nexin assay for apoptosis in trypanosome parasites. In kind it is cell-based. Conditions: 24 h; for minimum concentration inducing strong apoptosis: 0 μM to 50 μM tested; for apoptosis induction: molucidin 6.25 μM, ML-2-3 6.25 μM, ML-F52 0.78 μM. On the procedure: Seeding and incubation of parasites with compounds were done under the same conditions as those for the alamarBlue assay as described above without addition of the alarmarBlue reagent. In this case, after 24 h of incubation, Guava reagents for Nexin and cell cycle assays were added, and each assay was performed using the Millipore Guava easyCyte 5HT fluorescence-activated cell sorter (FACS) machine according to the manufacturer's instruction. The Nexin assay and subsequent FACS analysis allowed for detection of markers of apoptosis induction by the plant materials. Similarly, the cell cycle assay and subsequent FACS analysis allowed for detection of markers of cell cycle alteration by the plant materials. […]

Data set [2] concerns T. brucei brucei (TC-221 strain). In kind it is in vivo. The following applies: for survival of mice / death, days postinfection: vehicle control died at day 9. As to the method:
Six-week-old BALB/c female mice with an average weight of 20 g were infected with 1 × 10^3 cells of T. brucei brucei (TC-221 strain) and were randomly grouped into four cages containing five mice each. The first 3 groups were treated with 30 mg/kg of body weight of molucidin, ML-2-3, and ML-F52, respectively, 6 h postinfection and continued daily afterward for 5 consecutive days. The last group received physiological saline containing <0.1% of DMSO as a vehicle control. Parasitemia and weight were monitored daily until 20 days postinfection. The experiments were conducted in compliance with the internationally accepted principles for laboratory animal use and care as contained in the Canadian Council on Animal Care guidelines on animal use protocol review.

In the next data set the test system is HF-19 (lung fibroblast). As to the kind of experiment: MTT cytotoxicity assay, HF-19. In kind it is cell-based, human. The following applies: IC50 HF-19 / IC50 trypanosomes. As to the method: (§1) The cytotoxicity of the compounds to mammalian cells were determined using four human normal cell lines, namely, NB1RGB (skin fibroblast) and HF-19 (lung fibroblast) obtained from the RIKEN Bio Resource Center Cell Bank (Japan) and Chang Liver and Hs888Lu (lung) obtained from the European Collection of Authenticated Cell Cultures (ECACC). NB1RGB and HF-19 were maintained in minimum essential medium-α (MEM-α). Chang Liver and Hs888Lu were grown in Eagle's minimum essential medium (EMEM) and RPMI 1640, respectively. All of these media were supplemented with 10% fetal bovine serum (FBS) and 1% penicillin-streptomycin and were then incubated at 37°C under 5% CO2 in fully humidified conditions.
(§2) Cytotoxicity was determined using a 3-(4,5-dimethylthiazol-2-yl)-2,5-diphenyltetrazolium bromide (MTT) assay. The cells were treated with molucidin, ML-2-3, or ML-F52 at concentrations of ≤50 μM for 48 h. Cells were plated at a density of 0.5 × 10^4 cells/well into 96-well plates. After 24 h of incubation, cells were treated with various concentrations of each of the purified compounds for 48 h. Then, MTT solution was added to each well, and the cells were incubated for another 4 h. The precipitated MTT-formazan product was dissolved in 0.04 N HCl-isopropanol, and the amount of formazan was measured at a wavelength of 595 nm by a microplate reader (Immuno Mini NJ-2300; Nihon InterMed, Tokyo, Japan). Cytotoxicity was calculated as the percentage of live cells relative to the control culture. The selectivity index (SI) was expressed as the ratio of the IC50 obtained for mammalian cells and the IC50 for trypanosomes.

Data set [3] in a line: MTT cytotoxicity assay, HF-19. The data set is classed as cell-based, human. The following applies: human, HF-19 lung fibroblast cells; HF-19 normal lung fibroblast, 48 h. On the procedure:
as §1, §2

Another data set concerns Plasmodium falciparum. As to the kind of experiment: Preliminary in vitro anti-Plasmodium activity. In kind it is cell-based. Conditions: preliminary studies, unpublished data.
A short description of data set [4]: MTT cytotoxicity assay, Chang Liver. In kind it is cell-based, human. The following applies: human, Chang Liver cells; Chang liver normal liver, 48 h. As to the method:
as §1, §2

For a further data set, the system named is Chang Liver. The data set is described as follows: MTT cytotoxicity assay, Chang Liver. The data set is classed as cell-based, human. Conditions: IC50 Chang liver / IC50 trypanosomes. As to the method:
as §1, §2

The subject of the next data set is NB1RGB (skin fibroblast). As to the kind of experiment: MTT cytotoxicity assay, NB1RGB. The data set is classed as cell-based, human. The following applies: IC50 NB1RGB / IC50 trypanosomes. On the procedure: as §1, §2
Data set [5] can be described thus: MTT cytotoxicity assay, Hs888Lu. In kind it is cell-based, human. Conditions: human, Hs888Lu lung cells; Hs888Lu normal lung, 48 h. On the procedure:
as §1, §2

The test system of a further data set is Hs888Lu (lung). As to the kind of experiment: MTT cytotoxicity assay, Hs888Lu. In kind it is cell-based, human. Conditions: IC50 Hs888Lu / IC50 trypanosomes. On the procedure:
as §1, §2

Data set [6] deals with paraflagellum rod protein subunit 2, PFR-2. As to the kind of experiment: PFR-2 expression, immunohistochemistry and Western blotting with anti-PFR-2 antibody. The following applies: for expression of PFR-2 protein: 24 h, 5 μM molucidin, 15 μM ML-2-3, 0.43 μM ML-F52. In kind it is cell-based, Trypanosoma brucei brucei. On the procedure:
(§3) To investigate the effect of the compounds on parasite morphology and their flagellum function, immunohistochemistry using anti-paraflagellum rod protein anti-PFR-2 antibody ([37]), was performed with molucidin-, ML-2-3-, and ML-F52-treated trypanosome parasites. […] Parasites were then harvested after incubation with or without appropriate concentrations of compounds and were fixed with 4% paraformaldehyde in 8-well chamber slides at room temperature for 5 min. Washing steps were carried out with 500 μl of phosphate-buffered saline (PBS) twice and 0.1% Triton X-100 in PBS (PBST) at room temperature for 5 min each. Blocking reagent (500 μl; 3% bovine serum albumin [BSA] in PBS) was added and incubated for 30 min at room temperature. Primary and secondary antibody incubation with parasites was done for 1 h each, and 4′,6-diamidino-2-phenylindole (DAPI) (5 μg/ml DAPI in PBS) staining was done for 10 min. After the washing steps presented above, the slides were mounted using PermaFluor mounting reagent and were covered with coverslips. The slides were observed under an Olympus fluorescence microscope (Olympus BX53) to detect any phenotypic changes in T. brucei brucei parasites.
Trypanosome parasites were incubated with or without compound in vitro and were lysed with 0.5% NP-40 ([38]). Protein concentration of the lysate was determined using the Bio-Rad protein assay reagents (Bio-Rad, USA). SDS-PAGE was run using Invitrogen NuPAGE 12% Bis-Tris gel. The proteins were blotted on a polyvinylidene difluoride (PVDF) membrane (Immobilon P; Millipore, USA), added with mouse anti-PFR-2 antibody, 1:500 dilution, and incubated at 4°C overnight. The membrane was then incubated with anti-mouse horseradish peroxidase (HRP) antibodies, 1:2,000 dilution, for an hour at room temperature. Chemiluminescence HRP substrates A and B (Immobilon Western; Millipore, USA) were added to the membrane in a ratio of 1:1. Detection was done using the ATTO cooled charge-coupled device (CCD) camera system EzCapture II (ATTO Corporation, Japan).
To investigate the sequence in which the events (apoptosis induction, PFR-2 suppression, and cell cycle alteration) involved in mechanisms of action occur, we examined the time course for the three events using ML-2-3-treated parasites. Trypanosoma brucei parasites were incubated for 0, 0.5, 1.5, 3, 6, and 24 h with 15 μM ML-2-3 and were then subjected to both Nexin assay and Western blot analyses using the PFR-2 antibody. We further investigated the time course of cell cycle alteration using ML-2-3-treated parasites at similar concentrations and incubation periods.

Data set [7] has as its system T. brucei brucei parasites. As to the kind of experiment: Parasite morphology, DAPI / anti-PFR-2 immunohistochemistry. The following applies: 24 h; 5 μM molucidin, 15 μM ML-2-3, 0.43 μM ML-F52. The data set is classed as cell-based, Trypanosoma brucei brucei. On the procedure:
as §3

Where [8] appears, read: 30 mg/kg intraperitoneally, 5 consecutive days.

Structures are written as SMILES. “Also recorded” adds a separate entry of the source.

Turning to `COc1cc(/C=C2/C(=O)O[C@]34C=C[C@@H]5C(C(=O)O)=CO[C@H](O[C@@H]23)[C@@H]54)ccc1O` [ML-2-3], the “minimum concentration inducing strong apoptosis” value in data set [1] was 6.25 µM. Besides, in data set [1] (6.25 μM), the “early-stage apoptotic cells (lower right quadrant)” value turned out to be 7.8%. Besides, the “late-stage apoptotic cells (upper right quadrant)” value in [1] (6.25 μM) amounted to 4.4%. Also, the apoptosis induction entry in data set [1] is “significant apoptosis induction”. Also, the “survival of mice / death, days postinfection” value in data set [2] (setting [8]) was determined as 9 days. Moreover, the “SI (selectivity index)” value with HF-19 (lung fibroblast), in the data set on Chang Liver, with NB1RGB (skin fibroblast) and in the data set on Hs888Lu (lung) was over 13.33 throughout. Besides, the half-inhibitory concentration (IC50) at 48 h in data set [3], in data set [4] and in data set [5] was over 50 µM in each case. In addition, the “anti-Plasmodium activity in vitro” value in the data set with Plasmodium falciparum was “anti-Plasmodium activities”. Also, in data set [6] (15 μM ML-2-3, time course Western blot), the “time of exposure to significant suppression of PFR-2 protein expression” value is at most 0.5 h. The “expression of PFR-2 protein” value in [6] is recorded as “suppression of PFR-2 expression; also recorded: suppressed the expression of PFR-2 proteins”. Further, the “effect on nuclei and kinetoplast (DAPI)” value in [7] is given as “fragmented nuclei with normal kinetoplast”. Besides, the “effect on parasite cell form” value in [7] was “typical short stumpy form”.
In the case of `CCOC(=O)C1=CO[C@@H]2O[C@H]3/C(=C\c4ccc(O)c(OC)c4)C(=O)O[C@]34C=C[C@H]1[C@H]24` [ML-F52], the “minimum concentration inducing strong apoptosis” value in [1] turned out to be 0.78 µM. For the same molecule, in data set [1] (0.78 μM), the “early-stage apoptotic cells (lower right quadrant)” value is reported as 14.2%. For the same molecule, the “late-stage apoptotic cells (upper right quadrant)” value in data set [1] (0.78 μM) is 2.3%. In addition, the apoptosis induction result in data set [1] is given as “strongest induction of apoptosis”. In addition, in [2] (setting [8]), the “cure for 20 days postinfection” value came to 100%. Moreover, the “survival of mice / death, days postinfection” value in [2] (setting [8]) was 20 days. The “SI (selectivity index)” value in the data set on HF-19 (lung fibroblast) is 25.44; in the data set on Chang Liver, 42.16; in the data set with NB1RGB (skin fibroblast) it was 11.02; in the data set on Hs888Lu (lung) it was 20.67. In addition, the results for the IC50 at 48 h in data set [3], in [4] and in data set [5] were 10.9 µM, 18.1 µM and 8.89 µM, respectively. The “anti-Plasmodium activity in vitro” value in the data set on Plasmodium falciparum is reported as “anti-Plasmodium activities”. Moreover, the “expression of PFR-2 protein” value in [6] is recorded as “suppression of PFR-2 expression; also recorded: suppressed the expression of PFR-2 proteins”. For the same molecule, the “effect on nuclei and kinetoplast (DAPI)” value in data set [7] is “fragmented nuclei with normal kinetoplast”. Also, the “effect on parasite cell form” value in data set [7] is “abnormal cells that had two sets of kinetoplasts and flagellum with fragmented nuclei”.
`COC(=O)C1=CO[C@@H]2O[C@H]3/C(=C\c4ccc(O)c(OC)c4)C(=O)O[C@]34C=C[C@H]1[C@H]24` [molucidin]: in data set [1] (6.25 μM), the “early-stage apoptotic cells (lower right quadrant)” value came to 1.1%. The “late-stage apoptotic cells (upper right quadrant)” value in data set [1] (6.25 μM) is listed as 0%. Further, the apoptosis induction entry in data set [1] is reported as “no significant induction of apoptosis; also recorded: no significant apoptotic induction”. For the same molecule, the toxicity in mice entry in data set [2] (mouse, in vivo) was “severe toxicity”. Moreover, the “SI (selectivity index)” value came to 11.21 with HF-19 (lung fibroblast), 7.35 with Chang Liver, 5.60 in the data set on NB1RGB (skin fibroblast) and 7.31 in the data set with Hs888Lu (lung). The IC50 at 48 h in [3] is 14.2 µM; in data set [4] it was 9.34 µM; in [5], 9.29 µM. Besides, the “anti-Plasmodium activity in vitro” value in the data set on Plasmodium falciparum is recorded as “anti-Plasmodium activities”. The “expression of PFR-2 protein” value in [6] is reported as “significant expression of PFR-2”. Also, in data set [7], the “effect on nuclei and kinetoplast (DAPI)” value is “intact kinetoplast but totally disintegrated nuclei”. For the same molecule, in data set [7], the “effect on parasite cell form” value was “stumpy-like parasites”.
